Data set [1] has as its system transient K+ channels in hippocampal neurons. The following applies: cited from earlier work.
The test system of the next data set is Fibromyalgia. The following applies: Dose mg/day: dextromethorphan hydrobromide 400-480, tramadol hydrochloride 400, gabapentin 3600; cited from earlier work.
Another data set has as its target CYP2D6 (Homo sapiens, UniProt P10635). To be noted: gabapentin concentrations up to 171 μg/mL; cited from earlier work.
In another data set the target is CYP2C9 (Homo sapiens, UniProt P11712). To be noted: gabapentin concentrations up to 171 μg/mL; cited from earlier work.
The target in the next data set is CYP2E1 (Homo sapiens, UniProt P05181). The following applies: gabapentin concentrations up to 171 μg/mL; cited from earlier work.
The conditions of data set [2]: cited from earlier work.
For the next data set, the target named is CYP2C19 (Homo sapiens, UniProt P33261). To be noted: gabapentin concentrations up to 171 μg/mL; cited from earlier work.
For the next data set, the system named is fibromyalgia pain. Put plainly: Combination therapy in patients with fibromyalgia (Table 2, testimonies). The class given is in vivo, human. To be noted: for Pain Relief (percent of reduction in pain), Fibromyalgia: TLI-1026 twice daily (N = 5), single agents mg/day: dextromethorphan 70, tramadol 70, gabapentin 180.
The next data set deals with CYP3A4 (Homo sapiens, UniProt P08684). The following applies: gabapentin concentrations up to 171 μg/mL; cited from earlier work.
In data set [3] the test system is pain in diabetic neuropathy and fibromyalgia patients. Put plainly: Pooled statements on pain reduction in diabetic neuropathy and fibromyalgia patients. The format is in vivo, human.
For data set [4], the system named is diabetic neuropathy pain. Put plainly: Combination therapy in patients with diabetic neuropathy (Table 2, testimonies). The following applies: for Pain Relief (percent of reduction in pain), Diabetic Neuropathy: TLI-1026 twice daily (N = 5), single agents mg/day: dextromethorphan 70, tramadol 70, gabapentin 180; for pain relief (patient or physician testimony): diabetic neuropathy patients; for side effects / tolerability: two patients with diabetic peripheral polyneuropathy.

The subject of the next data set is Diabetic Neuropathy. To be noted: Dose mg/day: dextromethorphan hydrobromide 400-480, tramadol hydrochloride 400, gabapentin 3600; cited from earlier work.
For another data set, the target named is CYP1A2 (Homo sapiens, UniProt P05177). The following applies: gabapentin concentrations up to 171 μg/mL; cited from earlier work.
For data set [5] the following is noted: cited from earlier work; for accumulation during multiple dose treatment: multiple dose treatment with tramadol.
For the next data set, the target named is μ-opiate receptors (Homo sapiens, UniProt P35372). The following applies: cited from earlier work.
Data set [6] concerns patients with fibromyalgia. To be noted: fibromyalgia trials, cited from earlier work.
Another data set has as its system pain score in patients. The following applies: cited from earlier work.
Data set [7] deals with patients with diabetic peripheral neuropathy. The following applies: diabetic peripheral neuropathy trials; cited from earlier work.
For data set [8] the following is noted: 0.2M sodium chloride; cited from earlier work.
The subject of data set [9] is diabetic neuropathy pain. The following applies: human, in vivo.
Data set [10] deals with pain (arthritis, back, cancer neuropathy, tooth, lumbar, cervical spondyolosis, knee). To be noted: in vivo.
A further data set addresses hH1 Na+ channels (Homo sapiens, UniProt Q14524). The following applies: cited from earlier work; for IC50: 0.1-100 μM.
A further data set deals with postherpetic neuralgia. The following applies: oral amitriptyline; cited from earlier work.
Another data set has as its target cardiac Na+ channels (Homo sapiens, UniProt Q14524). The following applies: cited from earlier work.
Data set [11] has as its system Na+ currents in adrenal chromaffin cells. The following applies: read-out: IC50, peak Na+ currents; cited from earlier work.
Data set [12] concerns painful diabetic neuropathy. The following applies: oral amitriptyline; cited from earlier work.
Data set [13] deals with NF-κ-B activation in human myeloid ML-1a cells. The following applies: pretreatment of ML-1a cells; dose- and time-dependent; cited from earlier work.
The conditions of data set [14]: i.v. administration, rats; cited from earlier work.
The conditions of data set [15]: 90 g cream (0.025% capsaicin) per week, 100% absorbed, 50 kg person; cited from earlier work.
The conditions of data set [16]: oral dosing of rats, after 3 hours; cited from earlier work.

Where “and” joins values, the source holds several entries; their conditions need not be identical. Identical values can stand only once. Counter-ions that a name gives are not always drawn. Like-named read-outs stand apart in the source and are kept apart here. A value given as a limit tells only on which side of the number the result lay.

Chain of μ-opiate receptors (P35372 whole entry): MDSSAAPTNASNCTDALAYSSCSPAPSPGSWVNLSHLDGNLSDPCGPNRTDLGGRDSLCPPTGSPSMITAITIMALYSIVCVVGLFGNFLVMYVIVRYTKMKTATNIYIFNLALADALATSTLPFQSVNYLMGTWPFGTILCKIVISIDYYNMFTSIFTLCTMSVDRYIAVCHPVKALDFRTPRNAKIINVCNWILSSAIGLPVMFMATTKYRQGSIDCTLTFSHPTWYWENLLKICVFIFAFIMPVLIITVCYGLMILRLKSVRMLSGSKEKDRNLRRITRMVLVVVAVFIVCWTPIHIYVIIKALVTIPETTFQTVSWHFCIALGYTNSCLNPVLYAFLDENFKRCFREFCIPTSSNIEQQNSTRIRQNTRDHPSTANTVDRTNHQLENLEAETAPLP
Chain of hH1 Na+ channels (Q14524 whole entry): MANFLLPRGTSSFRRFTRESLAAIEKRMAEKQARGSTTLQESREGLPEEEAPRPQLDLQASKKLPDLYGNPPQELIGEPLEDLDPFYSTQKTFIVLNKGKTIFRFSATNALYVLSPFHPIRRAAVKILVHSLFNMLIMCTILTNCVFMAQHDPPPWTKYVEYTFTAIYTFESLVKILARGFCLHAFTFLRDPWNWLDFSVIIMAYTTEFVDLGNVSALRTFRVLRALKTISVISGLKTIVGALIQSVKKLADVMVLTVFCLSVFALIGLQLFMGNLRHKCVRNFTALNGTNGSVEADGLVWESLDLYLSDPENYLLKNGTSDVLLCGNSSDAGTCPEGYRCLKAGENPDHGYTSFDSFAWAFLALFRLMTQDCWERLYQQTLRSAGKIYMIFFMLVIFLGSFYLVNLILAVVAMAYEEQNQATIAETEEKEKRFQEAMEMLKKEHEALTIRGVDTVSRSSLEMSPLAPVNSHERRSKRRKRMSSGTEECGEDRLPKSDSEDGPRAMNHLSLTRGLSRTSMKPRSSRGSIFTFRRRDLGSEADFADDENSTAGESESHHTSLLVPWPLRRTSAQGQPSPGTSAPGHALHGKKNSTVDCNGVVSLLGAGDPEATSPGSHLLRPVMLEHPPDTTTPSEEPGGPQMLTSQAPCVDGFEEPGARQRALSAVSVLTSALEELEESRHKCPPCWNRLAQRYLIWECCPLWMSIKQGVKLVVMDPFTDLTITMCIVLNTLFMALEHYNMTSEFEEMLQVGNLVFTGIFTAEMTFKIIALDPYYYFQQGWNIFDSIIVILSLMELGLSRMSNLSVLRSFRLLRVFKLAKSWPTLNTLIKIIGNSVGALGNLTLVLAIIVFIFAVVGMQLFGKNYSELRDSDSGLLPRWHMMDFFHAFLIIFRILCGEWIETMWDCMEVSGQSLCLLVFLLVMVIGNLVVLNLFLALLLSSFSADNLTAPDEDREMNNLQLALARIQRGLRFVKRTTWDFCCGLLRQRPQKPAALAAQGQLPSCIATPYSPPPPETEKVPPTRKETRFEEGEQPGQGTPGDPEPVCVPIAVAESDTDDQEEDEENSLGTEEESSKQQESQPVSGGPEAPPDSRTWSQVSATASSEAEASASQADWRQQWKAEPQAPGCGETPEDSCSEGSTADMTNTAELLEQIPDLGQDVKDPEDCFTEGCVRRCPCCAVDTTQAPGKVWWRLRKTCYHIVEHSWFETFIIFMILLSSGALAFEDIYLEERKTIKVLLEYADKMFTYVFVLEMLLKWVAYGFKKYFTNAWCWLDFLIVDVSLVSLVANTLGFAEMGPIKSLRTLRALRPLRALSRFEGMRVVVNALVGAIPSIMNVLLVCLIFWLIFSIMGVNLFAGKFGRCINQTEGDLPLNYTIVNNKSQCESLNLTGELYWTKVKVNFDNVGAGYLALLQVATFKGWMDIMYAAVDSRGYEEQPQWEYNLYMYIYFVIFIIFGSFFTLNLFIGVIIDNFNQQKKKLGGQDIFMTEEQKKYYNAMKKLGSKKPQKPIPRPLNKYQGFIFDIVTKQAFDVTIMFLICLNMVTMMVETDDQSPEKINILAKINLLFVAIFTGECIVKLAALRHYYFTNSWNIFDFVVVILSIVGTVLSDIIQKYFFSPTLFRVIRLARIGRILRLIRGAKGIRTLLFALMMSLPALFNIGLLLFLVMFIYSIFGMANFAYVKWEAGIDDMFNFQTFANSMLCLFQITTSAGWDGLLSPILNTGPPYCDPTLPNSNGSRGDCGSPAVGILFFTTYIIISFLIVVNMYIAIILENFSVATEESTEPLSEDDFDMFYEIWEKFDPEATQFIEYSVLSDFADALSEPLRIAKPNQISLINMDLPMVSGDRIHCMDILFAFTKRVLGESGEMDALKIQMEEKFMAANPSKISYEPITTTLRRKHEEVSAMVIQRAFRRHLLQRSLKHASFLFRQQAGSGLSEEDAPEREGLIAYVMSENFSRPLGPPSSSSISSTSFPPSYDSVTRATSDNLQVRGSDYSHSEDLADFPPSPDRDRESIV
Chain of cardiac Na+ channels (Q14524 whole entry): as above
Chain of CYP2C19 (P33261 whole entry): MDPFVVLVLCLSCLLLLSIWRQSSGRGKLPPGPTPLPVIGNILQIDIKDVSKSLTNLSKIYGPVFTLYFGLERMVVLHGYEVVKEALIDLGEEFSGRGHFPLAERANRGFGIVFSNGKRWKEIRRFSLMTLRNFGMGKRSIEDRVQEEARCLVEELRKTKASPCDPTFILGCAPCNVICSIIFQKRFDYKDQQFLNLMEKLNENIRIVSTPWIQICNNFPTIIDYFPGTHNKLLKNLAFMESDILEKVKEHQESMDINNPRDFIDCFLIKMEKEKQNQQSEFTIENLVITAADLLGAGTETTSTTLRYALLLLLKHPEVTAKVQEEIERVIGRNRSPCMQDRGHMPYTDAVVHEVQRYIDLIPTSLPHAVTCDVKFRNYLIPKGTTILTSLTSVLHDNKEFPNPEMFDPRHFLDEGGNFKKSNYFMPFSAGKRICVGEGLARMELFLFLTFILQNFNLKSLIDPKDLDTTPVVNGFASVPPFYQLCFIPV

In general, IC50 refers to the concentration that inhibits the measured activity by half. Turning to `CN(C)CCCN1c2ccccc2CCc2ccccc21` [imipramine], in data set [1], the IC50 was around 6 µM.

As a reminder, the bioavailability is dose-corrected exposure relative to a reference, in per cent. Take `NCC1(CC(=O)O)CCCCC1` [Gabapentin]: the “Pain Relief (percent of reduction in pain), Fibromyalgia” value in the data set on Fibromyalgia is <50 (Lesley 2007) percent; in the data set on fibromyalgia pain, below 10%. Further, the “inhibition of CYP2D6” value on CYP2D6 was “No inhibition”. For the same compound, the “inhibition of CYP2C9” value on CYP2C9 is given as “No inhibition”. Moreover, the “inhibition of CYP2E1” value at CYP2E1 is on record as “No inhibition”. The bioavailability entry in [2] (900 mg/day given in 3 divided doses) was “approximately 60%”; in data set [2] (1200 mg/day given in 3 divided doses) it was around 47%; in [2] (2400 mg/day given in 3 divided doses) it was around 34%; in data set [2] (3600 mg/day given in 3 divided doses), around 33%; in data set [2] (4800 mg/day given in 3 divided doses) it was around 27%. For the same compound, the “increase in AUC and Cmax with food” value in data set [2] (food effect) is listed as 14%. In addition, the “bound to plasma protein” value in [2] (in vivo) is reported as “Less than 3%”. The “steady-state predose (Cmin) concentration in cerebrospinal fluid, % of corresponding plasma concentrations” value in data set [2] (patients with epilepsy) is “approximately 20%”. Moreover, the “inhibition of CYP2C19” value at CYP2C19 was “No inhibition”. Further, the “inhibition of CYP3A4” value at CYP3A4 is “No inhibition”. Further, in data set [3] (up to 1600 mg per day, patients with diabetic neuropathy or fibromyalgia), the “relief from pain with prior therapy (physician testimony)” value is “partial and marginal relief”. Also, the “Pain Relief (percent of reduction in pain), Diabetic Neuropathy” value with diabetic neuropathy pain [4] was below 10%; in the data set with Diabetic Neuropathy it was <50 (Marchettini percent and <50%. Moreover, the results for the “pain relief (patient or physician testimony)” value in the data set with diabetic neuropathy pain [4] (listed as Neurontin) and in the data set on diabetic neuropathy pain [4] (listed as Nurontin) were “no substantial pain relief” and “only curb the pain”, respectively. Also, in the data set with diabetic neuropathy pain [4], the “side effects / tolerability” value is reported as “substantial, negative side effects”. The “inhibition of CYP1A2” value at CYP1A2 is “No inhibition”.

For `COc1cccc(C2(O)CCCCC2CN(C)C)c1` (single isomer, unassigned) [Tramadol Hydrochloride, (1R,2R or 1S,2S)-(dimethylaminomethyl)-1-(3-methoxyphenyl)-cyclohexanol], the “Pain Relief (percent of reduction in pain), Fibromyalgia” value in the data set with Fibromyalgia was <30 (Biasi 1998; percent. Besides, the “time to peak serum concentrations” value in data set [5] (after oral administration) was at most 2 h. Moreover, the “accumulation during multiple dose treatment” value in data set [5] is “approximately 2 fold”. The “duration of the analgesic effect” value in [5] (single oral dose of tramadol 100 mg) is recorded as “about 6 hours”. Also, on μ-opiate receptors, the “affinity for μ-opiate receptors relative to dextromethorphan” value is reported as “equivalent”; the “affinity for μ-opiate receptors, fold less than codeine” value is reported as 10 fold; the “affinity for μ-opiate receptors, fold less than d-propoxyphene” value was 100 fold; the “affinity for μ-opiate receptors, fold less than morphine” value is 6,000 fold. The “Pain Relief (percent of reduction in pain), Fibromyalgia” value in the data set on fibromyalgia pain is reported as below 10%. Moreover, in the data set with fibromyalgia pain (fibromyalgia patients), the “pain relief (patient or physician testimony)” value is “moderate relief”. In addition, the reduction in pain in data set [3] (400 mg of tramadol per day, patients with diabetic neuropathy and fibromyalgia) is 30-40%. The “Pain Relief (percent of reduction in pain), Diabetic Neuropathy” value in the data set with diabetic neuropathy pain [4] is below 10%. Besides, the “Pain Relief (percent of reduction in pain), Diabetic Neuropathy” value in the data set on Diabetic Neuropathy was <35 (Sindrup 1999) percent and <35%.

With `CC(C)C[C@H](CN)CC(=O)O` [pregabalin], the results for the “patients who discontinued prematurely due to adverse reactions” value in [6] (150-600 mg/day) and in [7] were 19% and 9%, respectively. The “discontinuation due to dizziness” value in data set [6] is recorded as 6%; in data set [7], 3%. The “discontinuation due to somnolence” value is 3% in data set [6] and 2% in [7]. For the same compound, the “withdrawal due to each of fatigue, headache, balance disorder, weight increased” value in data set [6] is on record as “approximately 1%”. For the same compound, the “endpoint mean pain score and proportion with at least a 50% reduction in pain score” value with pain score in patients (8-week study, 50 and 100 mg three times a day) is given as “statistically significantly improved”; in the data set on pain score in patients (8-week study, 100 or 200 mg three times a day, doses assigned by creatinine clearance), “statistically significantly improved”; with pain score in patients (13-week study, 75, 150, 300 mg twice daily, creatinine clearance greater than 60 mL/min, all doses), “statistically significantly improved”; in the data set with pain score in patients (100 and 200 mg three times a day), “statistically significantly improved”. Further, the “withdrawal due to each of asthenia, confusion, peripheral edema” value in data set [7] was “approximately 1%”.

In the case of `COc1ccc2c(c1)[C@]13CCCC[C@@H]1[C@H](C2)N(C)CC3` [Dextromethorphan Hydrobromide], the “Pain Relief (percent of reduction in pain), Fibromyalgia” value in the data set on Fibromyalgia is <40 (Staud 2005) percent. Also, in the data set on Diabetic Neuropathy, the “Pain Relief (percent of reduction in pain), Diabetic Neuropathy” value was <50 (Sang 2002) percent and <50%.

With `COc1ccc(C(CN(C)C)C2(O)CCCCC2)cc1` (racemic) [Venlafaxine hydrochloride, (R/S)-1-[2-(dimethylamino)-1-(4-methoxyphenyl)ethyl]cyclohexanol], the “octanol:water partition coefficient” value in data set [8] is recorded as 0.43.

With `CN(C)CCC=C1c2ccccc2CCc2ccccc21` [Elavil], the “side effects / tolerability” value in the data set on diabetic neuropathy pain [9] was “substantial, negative side effects”. Also, the “pain relief (patient or physician testimony)” value in the data set with diabetic neuropathy pain [4] is “no substantial pain relief”.

Take `CCCC(C)(COC(N)=O)COC(=O)NC(C)C` (stereo not shown) [Soma, Carisoprodol]: in [10], the “pain relief (testimony)” value is reported as “only seemed to mask the pain” and the side effects result was “quite drowsy”.

By half-life is commonly meant how long it takes for the measured level to halve. Take `CN(C)C[C@H]1CCCC[C@]1(O)c1cccc(O)c1` [M1 derivative]: the half-life in data set [5] (after a single oral dose of 100 mg) was 9 h. Moreover, the “accumulation during multiple dose treatment” value in data set [5] was “approximately 2 fold”.

With `CN(C)CCC=C1c2ccccc2CCc2ccccc21` [amitriptyline], the “use-dependent block during repetitive pulses” value on hH1 Na+ channels (1 μM, 5 Hz) is recorded as around 55%. Also, the IC50 on hH1 Na+ channels (inactivated channels, n=7, read-out: IC50, tonic block of inactivated hH1 channels) was 0.58 ± 0.03 µM; at hH1 Na+ channels (resting channels, n=9, read-out: IC50, tonic block of resting hH1 channels) it was 24.8 ± 2 µM; in data set [11], 20.2 µM. The figures for the “share of patients with a good or moderate response” value (in the data set on postherpetic neuralgia; in data set [12]) were “about two-thirds” and “three-quarters”, respectively. In addition, at cardiac Na+ channels (0.4 μM, repetitive pulses at a frequency of 5 Hz, cardiac myocytes), the “use-dependent block of Na+ current” value is “profound use-dependent block”. The “time constant of recovery from the use-dependent block” value at cardiac Na+ channels (cardiac Na+ channels) is recorded as 13.6 s.

On to `CC(C)C[C@H](CN)CC(=O)O` [Lyrica], for which, in the data set on diabetic neuropathy pain [4], the “pain relief (patient or physician testimony)” value is listed as “only minimal resolution of symptoms” and the “side effects / tolerability” value is given as “substantial, negative side effects”.

Regarding `COc1ccc2c(c1)[C@]13CCCC[C@@H]1[C@H](C2)N(C)CC3`, the “Pain Relief (percent of reduction in pain), Fibromyalgia” value with fibromyalgia pain was below 10%. Moreover, the “Pain Relief (percent of reduction in pain), Diabetic Neuropathy” value in the data set on diabetic neuropathy pain [4] was below 10%.

Regarding `COc1cc(CNC(=O)CCCCC=CC(C)C)ccc1O` [capsaicin, 8-methyl-N-vanillyl-6-nonenamide], in data set [13], the “effect on TNF-mediated activation of NF-κ-B” value is recorded as “blocked TNF-mediated activation of NF-κ-B”. The “time to distribution to brain, spinal cord, liver and blood” value in data set [14] was at most 20 min. Also, in [15], the estimated daily exposure is 0.064 mg/kg. Besides, the “absorption in the jejunum” value in [16] is 85%.
